Results reported in paper PMC10584170, “Machine learning-based phenotypic imaging to characterise the targetable biology of Plasmodium falciparum male gametocytes for the development of transmission-blocking antimalarials” (PLOS Pathogens, 2023).

Tests used:
[1] = tested on: P. falciparum male gametocytes; test: P. falciparum Dual Gamete Formation Assay (PfDGFA), male readout (exflagellation); type: cell-based, Plasmodium falciparum NF54; details: for % inhibition male (individual replicates) R1: replicate R1; for % inhibition male (individual replicates) R3: replicate R3; for % inhibition male (individual replicates) R4: replicate R4; for Average inhibition male (%): average of replicates; for Activity: hit = >50% inhibition in male or female readout in at least 3 replicates, 0 = no class assigned
Outline: (§1)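 Male and female gamete formation were quantified by microscopy image analysis following 24 h incubation of mature NF54 gametocytes with compound and activation at 28°C with xanthurenic acid.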

[2] = tested on: P. falciparum female gametocytes; test: P. falciparum Dual Gamete Formation Assay (PfDGFA), female readout (Pfs25-positive female gametes); type: cell-based, Plasmodium falciparum NF54; details: for % inhibition female (individual replicates) R1: replicate R1; for % inhibition female (individual replicates) R3: replicate R3; for % inhibition female (individual replicates) R4: replicate R4; for Average inhibition female (%): average of replicates
Outline: as §1

[3] = PfDGFA at 2µM, 24h preincubation with gametocytes prior to induction of gametogenesis
[4] = PfDGFA at 2µM, 24h preincubation
[5] = 2µM, 24h preincubation with gametocytes prior to induction of gametogenesis
[6] = 2µM, 24h preincubation, number of replicates with >50% inhibition in the male readout
[7] = 2µM, 24h preincubation, number of replicates with >50% inhibition in the female readout
[8] = 2µM, 24h preincubation, hits selected on >50% inhibition in the male readout across replicates
[9] = 2µM, 24h preincubation, hits selected on >50% inhibition in the female readout across replicates
[10] = PfDGFA at 2µM, 24h preincubation with gametocytes

Compound	% inhibition male (individual replicates) R1 [1, 3]	% inhibition male (individual replicates) R4 [1, 3]	Average inhibition male (%) [1, 4]	% inhibition female (individual replicates) R1 [2, 3]	% inhibition female (individual replicates) R3 [2, 3]	% inhibition female (individual replicates) R4 [2, 3]	Average inhibition female (%) [2, 4]	Average inhibition male (%) [1, 5]	% inhibition male (individual replicates) R1 [1, 5]	% inhibition male (individual replicates) R3 [1, 5]	% inhibition male (individual replicates) R4 [1, 5]	HitlevelM [1, 6]	Average inhibition female (%) [2, 5]	% inhibition female (individual replicates) R1 [2, 5]	% inhibition female (individual replicates) R3 [2, 5]	% inhibition female (individual replicates) R4 [2, 5]	HitlevelF [2, 7]	other results
C=C[C@]1(C)C[C@@H](OC(=O)CNC[C@@H](O)CN2C[C@H](c3ccnc4ccc(OC)nc34)OC2=O)[C@]2(C)[C@H](C)CC[C@]3(CCC(=O)[C@H]32)[C@@H](C)[C@@H]1O [TCMDC-135366]	-4.9%	9.5%	-1.6%	-19.6%	-21.7%	-0.7%	-7.1%											% inhibition male (individual replicates) R3 [1, 3]: -9.1%
COc1cc(NC(=O)c2sc(-c3ccc(Cl)cc3)cc2NC(=O)c2cccnc2)ccc1OCCN1CCCC1 [TCMDC-135397]								57.2%	45.5%	40.3%	71.6%	2	46.9%	19.3%	58.0%	48.0%	2	
CCCCN(Cc1cc(Cl)c(OC)c(OC)c1)c1ccc(C(O)(C(F)(F)F)C(F)(F)F)cc1.O=C(O)C(F)(F)F [TCMDC-135446]	-14.8%	-29.5%	-22.3%	1.9%	-6.9%	1.5%	-3.4%											
NCCCNc1nccc(N2CCc3ncnc(Nc4ccc(OCc5cccc(F)c5)c(Cl)c4)c3C2)n1 [TCMDC-135456]								-16.9%	-14.5%	-30.0%	-11.8%		13.8%	10.7%	-9.6%	40.7%		HitlevelM [1, 8]: 0; Activity [1, 4]: 0; HitlevelF [2, 9]: 0
COc1cc2ccccc2cc1OCCCN1CCN(CC(c2ccc(F)cc2)N2CCN(C(C)C)CC2)CC1.Cl (stereo not drawn) [TCMDC-135496]								6.1%	10.5%	-16.9%	18.2%	0	22.9%	29.5%	8.0%	29.0%	0	
CC(C)N1CCN(C(CN2CCN(CCCOc3ccccc3-c3ccccc3)CC2)c2ccc(F)cc2)CC1.Cl (stereo not drawn) [TCMDC-135499]								13.5%	15.7%	14.1%	9.5%	0	28.0%	23.1%	16.4%	32.9%	0	
CC(=O)Nc1cccc(Nc2nccc(-c3c(-c4cccc(NC(=O)c5c(F)cccc5F)c4)nn4ncccc34)n2)c1 [TCMDC-135548]	29.2%	-3.8%	8.8%	-7.4%	-25.4%	-8.4%	-11.7%											% inhibition male (individual replicates) R3 [1, 3]: 23.6%
CCS(=O)(=O)c1ccc(OC)c(Nc2nccc(-c3c(-c4cccc(NC(=O)c5c(F)cccc5F)c4)nn4ncccc34)n2)c1 [TCMDC-135682]								69.4%	83.8%		34.3%		14.6%	17.1%	13.9%	13.6%		HitlevelM [1, 8]: 2; Activity [1, 4]: 0; HitlevelF [2, 9]: 0
C[C@@H](Oc1cc(-n2cnc3ccc(OCC4CCN(S(C)(=O)=O)CC4)cc32)sc1C(N)=O)c1ccccc1C(F)(F)F [TCMDC-135685]								39.3%	77.8%	32.6%	-12.5%	2	30.5%	13.3%	19.8%	50.4%	1	
COc1ccc2ncc(F)c(CCN3CCC(NCc4cc(F)c5c(c4)OCCO5)CC3)c2n1.Cl [TCMDC-135849]	-15.0%	-21.8%	-22.8%	9.2%	-25.5%	10.6%	-0.168%											% inhibition male (individual replicates) R3 [1, 3]: -30.0%
COc1ccc(-c2cnc3[nH]cc(-c4ccncc4)c3c2)cc1OC [TCMDC-135853]																		Average inhibition male (%) [1, 10]: 73.2%; % inhibition male (individual replicates) R1 [1, 10]: 70.5%; % inhibition male (individual replicates) R3 [1, 10]: 62.1%; % inhibition male (individual replicates) R4 [1, 10]: 76.3%; HitlevelM ([1]; number of replicates with >50% inhibition in the male readout, 2µM): 4; Average inhibition female (%) [2, 10]: 15.5%; % inhibition female (individual replicates) R1 [2, 10]: 9.0%; % inhibition female (individual replicates) R3 [2, 10]: 36.4%; % inhibition female (individual replicates) R4 [2, 10]: 5.3%; HitlevelF ([2]; number of replicates with >50% inhibition in the female readout, 2µM): 0
CC(C)CN1CCC(COc2ccc3ncn(-c4cc(O[C@H](C)c5ccccc5C(F)(F)F)c(C(N)=O)s4)c3c2)CC1 [TCMDC-135856]	69.3%	-19.8%	39.0%	-5.1%	3.7%	-5.5%	-0.7%											
COc1ccc2ccccc2c1CCCCN1CCN(CC(c2ccc(F)cc2)N2CCC(N3CCCC3)CC2)CC1.O=C(O)C(F)(F)F (stereo not drawn) [TCMDC-135866]								26.2%	24.9%	0.4%	58.9%	1	23.8%	27.0%	20.6%	10.9%	0	
COc1ccc2ccccc2c1CCCCN1CCN(CC(c2ccc(F)cc2)N2CCC2)CC1.O=C(O)C(F)(F)F (stereo not drawn) [TCMDC-135867]								8.0%	-5.9%	-10.3%	17.6%	0	37.8%	32.4%	22.8%	37.2%	1	
